This note sets out measurements from ChEMBL document CHEMBL1201862, “PubChem BioAssay data set” (2004).

Among the test systems are COLO 205; HCC 2998; HOP-92; IGROV-1; K562; KM12; Malme-3M; NCI-H23; NCI-H522; OVCAR-3; OVCAR-5; RPMI-8226; SF-539; SK-MEL-28; SK-OV-3; SNB-19; U-251; UACC-257; UACC-62.
Common to all, as to assay: NCI tumour cell line growth inhibition, 48 h

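Where inhibition never reached the appropriate level, the endpoint shown equals the highest concentration tested. Otherwise, values were interpolated linearly from a five-concentration, 48-hour dose response in 96-well plates. GI50 is the concentration that inhibits growth by half.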 Active and inactive are the calls of the source. Cut-off read from the data, not from the text of the source: active = GI50 up to about 1.1 µM and inactive = higher.

For the compound `O=C(N/C(=C/c1cccc([N+](=O)[O-])c1)c1nc2cc(Cl)ccc2[nH]1)c1ccccc1`, the GI50 in the assay on COLO 205 is 41.9 µM (inactive); in the assay on HCC 2998 it was 23.1 µM (inactive); in the assay on HOP-92, 19.1 µM (inactive); in the assay with IGROV-1, 4.53 µM (inactive); in the assay on K562, 6.21 µM (inactive); in the assay on KM12, 5.41 µM (inactive). For the same compound, the GI50 in the assay on Malme-3M was 12.8 µM (inactive); with NCI-H23 it was 11.4 µM (inactive); in the assay on NCI-H522, 4.07 µM (inactive); in the assay on OVCAR-3, 19.6 µM (inactive); in the assay on OVCAR-5, 27.8 µM (inactive); in the assay with RPMI-8226, 2.71 µM (inactive). Further, the GI50 in the assay on SF-539 was 3.51 µM (inactive); in the assay on SK-MEL-28, 22.6 µM (inactive); with SK-OV-3, 17.3 µM (inactive); in the assay with SNB-19, 36.3 µM (inactive); with U-251, 9.73 µM (inactive); in the assay with UACC-257 it was 43.8 µM (inactive). Also, the GI50 with UACC-62 is 5.4 µM (inactive).
For `C=C1CC2CC[C@@]34C[C@@H]5O[C@@H]6C(O[C@H]7CC[C@H](CC(=O)OC8[C@@H](C)C9OC%10C[C@]%11(C[C@@H]%12O[C@@]%13(C[C@@H](C)[C@@H]%12O%11)C[C@H](C)[C@@H]%11OC%12CC(C(O)CO)OC%12C[C@@H]%11O%13)OC%10CC9O[C@H]8C[C@H]8O[C@@H](CC[C@@H]1O2)C[C@@H](C)C8=C)O[C@@H]7[C@@H]6O3)C5O4` (stereo not given in full), the GI50 with COLO 205 is 0.000667 µM (active); in the assay with HCC 2998 it was 0.00225 µM (active); with HOP-92, 0.00236 µM (active); in the assay on IGROV-1 it was 0.00248 µM (active); in the assay on K562 it was 0.000755 µM (active); in the assay with KM12, 0.000494 µM (active). Further, the GI50 was 0.000904 µM (active) in the assay with Malme-3M; 0.00104 µM (active) in the assay with NCI-H23; 0.000213 µM (active) with NCI-H522; 0.000279 µM (active) in the assay with OVCAR-3; 0.00904 µM (active) in the assay with OVCAR-5; 0.00185 µM (active) in the assay with RPMI-8226. The GI50 was 0.000933 µM (active) in the assay with SF-539; 0.0014 µM (active) with SK-MEL-28; 0.00166 µM (active) with SK-OV-3; 0.00211 µM (active) with SNB-19; 0.00103 µM (active) in the assay with U-251; 0.000262 µM (active) in the assay on UACC-257. Besides, the GI50 in the assay with UACC-62 was 0.000494 µM (active).
Turning to `CCCCCCN(CCCCCC)C1=CC(=O)C(=O)c2ccccc21`, the GI50 is 16.7 µM (inactive) with COLO 205; 20.9 µM (inactive) in the assay with HCC 2998; 14.5 µM (inactive) with HOP-92; 17.2 µM (inactive) in the assay on IGROV-1; 17.1 µM (inactive) in the assay on K562; 17.6 µM (inactive) with KM12. Further, the GI50 is 21.3 µM (inactive) with Malme-3M; 11.5 µM (inactive) with NCI-H23; 11.6 µM (inactive) in the assay with NCI-H522; 3.55 µM (inactive) with OVCAR-3; 19.1 µM (inactive) with OVCAR-5; 16.7 µM (inactive) in the assay on RPMI-8226. Moreover, the GI50 in the assay on SF-539 was 17.2 µM (inactive); in the assay on SK-MEL-28 it was 17.6 µM (inactive); in the assay on SK-OV-3, 17.7 µM (inactive); with SNB-19, 16.1 µM (inactive); in the assay with U-251 it was 15.8 µM (inactive); with UACC-257, 15.2 µM (inactive). Besides, the GI50 in the assay with UACC-62 is 16.5 µM (inactive).
Take `O=C1OC(=O)C2C1C1C(c3ccccc3)=C(c3ccccc3)C2(O)C2C(=O)OC(=O)C12` (stereo not given): the GI50 was > 100 µM (inactive) with COLO 205; > 100 µM (inactive) in the assay with HCC 2998; 65.6 µM (inactive) in the assay on HOP-92; > 100 µM (inactive) in the assay with IGROV-1; 45.1 µM (inactive) in the assay with K562; > 100 µM (inactive) with KM12. Moreover, the GI50 in the assay on Malme-3M is > 100 µM (inactive); in the assay on NCI-H23, 65.3 µM (inactive); with NCI-H522, 68.7 µM (inactive); in the assay with OVCAR-3 it was > 100 µM (inactive); with OVCAR-5, > 100 µM (inactive); in the assay with RPMI-8226, 38.6 µM (inactive). In addition, the GI50 was 98.4 µM (inactive) in the assay on SK-MEL-28; > 100 µM (inactive) in the assay with SK-OV-3; > 100 µM (inactive) with SNB-19; 52.1 µM (inactive) with U-251; > 100 µM (inactive) in the assay with UACC-257; > 100 µM (inactive) in the assay with UACC-62.
For `O=C(O)CN(c1ccc(F)cc1)S(=O)(=O)c1ccccc1`, the GI50 in the assay with COLO 205, in the assay with HOP-92, in the assay on IGROV-1, with K562, in the assay on KM12 and in the assay on Malme-3M was > 100 µM (inactive) each time. Moreover, the GI50 in the assay on NCI-H23, with NCI-H522, with OVCAR-3, in the assay with OVCAR-5, in the assay with RPMI-8226 and in the assay with SF-539 was > 100 µM (inactive) throughout. The GI50 in the assay on SK-MEL-28, in the assay on SK-OV-3, in the assay with SNB-19, in the assay with U-251, in the assay with UACC-257 and in the assay with UACC-62 was > 100 µM (inactive) in each case.
With `Cc1c(C)n(COCCO)c2ncnc(N)c12`, the GI50 in the assay on COLO 205, in the assay with HCC 2998, with HOP-92, in the assay with IGROV-1, with K562 and with KM12 was > 100 µM (inactive) in each case. Besides, the GI50 in the assay on NCI-H23, in the assay with NCI-H522, in the assay with OVCAR-3, with RPMI-8226, with SF-539 and with SK-MEL-28 was > 100 µM (inactive) in each case. Besides, the GI50 with SK-OV-3, in the assay on SNB-19 and with U-251 was > 100 µM (inactive) throughout.
For the compound `N#C/C(=C/c1ccsc1)C(=O)c1ccccc1`, the GI50 in the assay on COLO 205, in the assay with HCC 2998, in the assay with HOP-92, in the assay with K562, in the assay with KM12 and with Malme-3M was > 100 µM (inactive) throughout. Further, the GI50 in the assay with NCI-H23, with NCI-H522, in the assay with OVCAR-3, with OVCAR-5, in the assay on RPMI-8226 and in the assay with SF-539 was > 100 µM (inactive) throughout. For the same compound, the GI50 in the assay on SK-MEL-28, in the assay with SK-OV-3, with SNB-19, with U-251, in the assay with UACC-257 and in the assay on UACC-62 was > 100 µM (inactive) throughout.
Turning to `CN(C)c1ccc(/C=N\N2C(=O)c3ccccc3C2=O)cc1`, the GI50 in the assay on HCC 2998, in the assay with HOP-92, in the assay with IGROV-1, in the assay on K562, in the assay on KM12 and in the assay with Malme-3M was > 100 µM (inactive) throughout. The GI50 in the assay on NCI-H23, in the assay with OVCAR-3, in the assay on OVCAR-5, in the assay on RPMI-8226, in the assay with SF-539 and in the assay with SK-MEL-28 was > 100 µM (inactive) throughout. For the same compound, the GI50 with SNB-19, with UACC-257 and with UACC-62 was > 100 µM (inactive) in each case.
In the case of `COC(=O)C1=Cc2cn(S(=O)(=O)c3ccc(C)cc3)c3cccc(c23)C(C=C(C)C)N1C(C)=O` (stereo not given), the GI50 was 4.71 µM (inactive) in the assay on COLO 205; > 100 µM (inactive) in the assay with HCC 2998; 12.7 µM (inactive) with HOP-92; 48.8 µM (inactive) with IGROV-1; 8 µM (inactive) with K562; > 100 µM (inactive) in the assay with KM12. Also, the GI50 in the assay with Malme-3M is 16.8 µM (inactive); with NCI-H23, 36.9 µM (inactive); in the assay on NCI-H522 it was 5.83 µM (inactive); in the assay with OVCAR-3, 9.14 µM (inactive); in the assay on OVCAR-5, > 100 µM (inactive); with SF-539, > 100 µM (inactive). Moreover, the GI50 was > 10 µM (inactive) in the assay on SK-MEL-28; > 100 µM (inactive) in the assay on SK-OV-3; 49 µM (inactive) in the assay on SNB-19; 45.6 µM (inactive) in the assay on U-251; 11.3 µM (inactive) with UACC-257; 47.4 µM (inactive) in the assay with UACC-62.
For `O=C1C=CC(=O)c2c1ccc1c3ccccc3n(-c3ccccn3)c21`, the GI50 is 14.2 µM (inactive) with COLO 205; > 100 µM (inactive) in the assay on HCC 2998; 15.6 µM (inactive) in the assay with HOP-92; 4.98 µM (inactive) in the assay on K562; > 100 µM (inactive) with KM12; 17.8 µM (inactive) in the assay with Malme-3M. Also, the GI50 with NCI-H23 was 36.6 µM (inactive); with NCI-H522, 4.15 µM (inactive); in the assay with OVCAR-3, 24.7 µM (inactive); in the assay on OVCAR-5, > 100 µM (inactive); in the assay with RPMI-8226, 25.6 µM (inactive); in the assay with SF-539, 32 µM (inactive). In addition, the GI50 with SK-MEL-28 was > 100 µM (inactive); in the assay with SK-OV-3, > 100 µM (inactive); in the assay on U-251, > 100 µM (inactive); in the assay on UACC-257, 18.5 µM (inactive).
Consider `O=S1(=O)NN=C(NCc2ccc(Cl)cc2)c2ccccc21`, for which the GI50 was > 100 µM (inactive) with COLO 205; > 100 µM (inactive) in the assay on HCC 2998; 35.3 µM (inactive) with HOP-92; > 100 µM (inactive) with IGROV-1; 38 µM (inactive) with K562; > 100 µM (inactive) with KM12. Further, the GI50 in the assay with Malme-3M was > 100 µM (inactive); with OVCAR-3 it was > 100 µM (inactive); with OVCAR-5 it was > 100 µM (inactive); in the assay with RPMI-8226, 30.6 µM (inactive); in the assay on SF-539, > 100 µM (inactive); with SNB-19 it was > 100 µM (inactive). The GI50 in the assay with U-251 is 50.4 µM (inactive); in the assay on UACC-257, > 100 µM (inactive); in the assay with UACC-62, 83.6 µM (inactive).
